Experimental findings from patent publication US20060154942A1, “Quinazolinone derivatives useful as anti-hyperalgesic agents” (priority 2002, published 2006) are described below.

`CC(C)c1cc2nc(N)[nH]c(=O)c2cc1-c1ccc(Cl)cc1` [Example 59, 2-Amino-6-(4-chlorophenyl)-7-isopropyl-3H-quinazolin-4-one] came in with a melting point of 326 to 330 °C.

A word on the melting point: it is the temperature, or range, at which the solid turns liquid.
